Data taken from article PMC6539903 (Molecules, 2019).

Assays:
A549 = assay: MTT antiproliferation assay, A549; format: cell-based; details: Homo sapiens, 48 h, n = 3, read-out: IC50 ± SD A549
Method: (§1) MCF-7 (human breast cell line), HeLa (human cervical cell line), A549 (human lung cell line), HepG2 (human liver cell line), SW620 (human colorectal cell line) and a non-cancer cell line, NCM460 (Human colonic epithelial cells) were preserved at the State Key Laboratory of Pharmaceutical Biotechnology, Nanjing University (Nanjing, China).
(§2) The antiproliferative activity of the synthetic compounds against the SW620, MCF-7, HeLa, A549, HepG2, and NUM460 cell lines was evaluated by a colorimetric assay based on a modified standard (MTT). […] Thereafter, MTT (5 mg/mL in PBS) was added to each well and incubated for 4 h. 150 μL of DMSO was added to each well and shaken with a shaker. The absorbance (OD 570 nm) was read at 630 nm on an ELISA reader (ELx800, BioTek, montpelier, VT, USA). IC50 values for the compounds were calculated by comparison to DMSO treated control wells. Three replicate wells were used for each drug concentration. Each assay was performed three times.

COX-1 = target: T1, COX-1 (Homo sapiens, UniProt P23219); assay: COX-1 inhibition assay (COX-1 ELISA kit); format: biochemical; details: mean of four determinations; read-out: IC50 ± SD COX-1
T1 construct: purchased Cayman Chemical 701170
T1 sequence (P23219 24-599): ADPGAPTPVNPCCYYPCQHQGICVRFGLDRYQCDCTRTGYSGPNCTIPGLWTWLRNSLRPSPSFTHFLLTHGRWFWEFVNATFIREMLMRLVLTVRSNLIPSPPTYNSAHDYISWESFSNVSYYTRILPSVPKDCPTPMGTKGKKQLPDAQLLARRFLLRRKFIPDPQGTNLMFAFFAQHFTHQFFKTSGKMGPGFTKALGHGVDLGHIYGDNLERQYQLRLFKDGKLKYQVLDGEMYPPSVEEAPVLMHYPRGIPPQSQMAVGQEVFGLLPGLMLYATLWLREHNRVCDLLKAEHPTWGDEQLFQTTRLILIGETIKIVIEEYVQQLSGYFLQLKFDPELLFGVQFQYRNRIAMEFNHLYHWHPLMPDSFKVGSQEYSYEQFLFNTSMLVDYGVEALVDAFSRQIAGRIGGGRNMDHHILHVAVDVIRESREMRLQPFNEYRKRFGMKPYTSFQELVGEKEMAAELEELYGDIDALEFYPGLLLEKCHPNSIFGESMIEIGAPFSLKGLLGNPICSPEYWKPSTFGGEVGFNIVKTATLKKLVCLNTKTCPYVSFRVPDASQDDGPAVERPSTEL
Method: (§3) 3-(4,5-Dimethylthiazol-2-yl)-2,5-diphenyltetrazolium (MTT) were purchased from Beyotime Institute of Biotechnology (Haimen, China). Annexcin V-FITC cell apoptosis assay kit (catalog No.BA11100) was purchased from BIO-BOX (Nanjing, China). Fibronectin (#F1056) and laminin (#L2020) were purchased from Sigma-Aldrich (St. Louis, MO, USA).
(§4) Then 1 M HCl was added to the reaction mixture to stop the reaction, and one-tenth of the volume of saturated stannous chloride (50 mg/mL) was added. The reaction mixture was incubated at room temperature for 5 min, and PGF2 and PGH2 were produced.

[1] = MTT cytotoxicity assay, non-cancer colon cells; format: cell-based; details: human, NCM460 colonic epithelial cells (non-cancer cell line), n = 3, non-cancer cell line, read-out: CC50 ± SD NUM460
Method: Besides, the MTT assay was performed on a non-cancer line NCM460 to assess the cytotoxicity of the test compound to normal colon cells.
as §1, §2

HeLa = assay: MTT antiproliferation assay, HeLa; format: cell-based; details: Homo sapiens, 48 h, n = 3, read-out: IC50 ± SD HeLa
Method: as §1, §2

HepG2 = assay: MTT antiproliferation assay, HepG2; format: cell-based; details: Homo sapiens, 48 h, n = 3, read-out: IC50 ± SD HepG2
Method: as §1, §2

SW620 cells = assay: MTT antiproliferation assay, SW620; format: cell-based; details: Homo sapiens, SW-620, 48 h, n = 3, read-out: IC50 ± SD SW620
Method: as §1, §2

MCF-7 = assay: MTT antiproliferation assay, MCF-7; format: cell-based; details: Homo sapiens, MCF7, 48 h, n = 3, read-out: IC50 ± SD MCF-7
Method: as §1, §2

COX-2 = target: T2, COX-2 (Homo sapiens, UniProt P35354); assay: COX-2 inhibition assay (COX-2 ELISA kit); format: biochemical; details: for Selectivity Index (SI) (COX-1 IC50/COX-2 IC50): in vitro COX-2 selectivity index; for IC50: mean of four determinations, read-out: IC50 ± SD COX-2
T2 construct: purchased Cayman Chemical 701180
T2 sequence (P35354 18-604): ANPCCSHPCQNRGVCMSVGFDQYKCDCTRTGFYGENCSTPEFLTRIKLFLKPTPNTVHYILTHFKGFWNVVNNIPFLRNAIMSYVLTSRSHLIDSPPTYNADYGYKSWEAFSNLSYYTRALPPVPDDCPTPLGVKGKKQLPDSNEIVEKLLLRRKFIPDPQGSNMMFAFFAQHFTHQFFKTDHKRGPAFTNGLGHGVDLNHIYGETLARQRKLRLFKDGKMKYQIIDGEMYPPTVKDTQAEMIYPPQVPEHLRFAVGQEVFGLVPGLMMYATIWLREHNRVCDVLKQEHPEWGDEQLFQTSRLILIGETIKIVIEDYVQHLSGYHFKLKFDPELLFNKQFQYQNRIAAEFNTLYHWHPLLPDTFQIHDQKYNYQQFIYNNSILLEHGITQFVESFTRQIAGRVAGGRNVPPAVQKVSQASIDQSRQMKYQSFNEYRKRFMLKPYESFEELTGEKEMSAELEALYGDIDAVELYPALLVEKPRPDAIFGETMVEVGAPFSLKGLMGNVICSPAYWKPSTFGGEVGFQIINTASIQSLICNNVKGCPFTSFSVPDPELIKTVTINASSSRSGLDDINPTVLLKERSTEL
Method: as §3, §4

| IC50 (A549) [µM] | IC50 (COX-1) [µM] | melting point [°C] | IC50 (HeLa) [µM] | IC50 (HepG2) [µM] | IC50 (SW620 cells) [µM] | IC50 (MCF-7) [µM] | Selectivity Index (SI) (COX-1 IC50/COX-2 IC50) (COX-2) | IC50 (COX-2) [µM] | SMILES | CC50 at 48 h [1] [µM] |
| --- | --- | --- | --- | --- | --- | --- | --- | --- | --- | --- |
| 4.26 ± 0.19 | > 60 | 159 to 161 | 6.97 ± 0.51 | 8.94 ± 0.67 | 3.74 ± 0.12 | 6.31 ± 0.39 | >40.54 | 1.48 ± 0.02 | Cc1cc(C2=NN(c3ccc(S(N)(=O)=O)cc3)C(c3ccc4c(c3)OCCO4)C2)ccc1F (centres unmarked) [Compound 4t, 4-(5-(2,3-Dihydrobenzo[b][1,4]dioxin-6-yl)-3-(4-fluoro-3-methylphenyl)-4,5-dihydro-1H-pyrazol-1-yl)benzenesulfonamide] | 104 ± 4.74 |
| 2.86 ± 0.06 | 25.84 ± 0.21 | 212 to 214 | 5.71 ± 0.47 | 6.42 ± 0.25 | 3.04 ± 0.17 | 5.26 ± 0.42 | 21.53 | 1.2 ± 0.05 | NS(=O)(=O)c1ccc(N2N=C(c3ccc(I)cc3)CC2c2ccc3c(c2)OCO3)cc1 (centres unmarked) [Compound 4d, 4-(5-(Benzo[d][1,3]dioxol-5-yl)-3-(4-iodophenyl)-4,5-dihydro-1H-pyrazol-1-yl)benzenesulfonamide] | 74.5 ± 5.23 |
| 5.78 ± 0.16 | > 60 | 168 to 169 | 8.34 ± 0.69 | 11.7 ± 0.86 | 4.48 ± 0.24 | 7.42 ± 0.63 | >33.52 | 1.79 ± 0.13 | NS(=O)(=O)c1ccc(N2N=C(c3ccc(F)cc3F)CC2c2ccc3c(c2)OCCO3)cc1 (centres unmarked) [Compound 4z, 4-(3-(2,4-Difluorophenyl)-5-(2,3-dihydrobenzo[b][1,4]dioxin-6-yl)-4,5-dihydro-1H-pyrazol-1-yl)benzenesulfonamide] | 135 ± 9.63 |
| 5.86 ± 0.36 | > 60 | 180 to 181 | 8.41 ± 0.29 | 11.8 ± 0.96 | 4.54 ± 0.29 | 7.51 ± 0.57 | >33.15 | 1.81 ± 0.09 | NS(=O)(=O)c1ccc(N2N=C(c3ccccc3F)CC2c2ccc3c(c2)OCO3)cc1 (centres unmarked) [Compound 4j, 4-(5-(Benzo[d][1,3]dioxol-5-yl)-3-(2-fluorophenyl)-4,5-dihydro-1H-pyrazol-1-yl)benzenesulfonamide] | 137 ± 12.7 |
| 6.93 ± 0.17 | 21.11 ± 0.19 | 182 to 184 | 9.37 ± 0.9 | 13.7 ± 0.93 | 5.07 ± 0.26 | 8.31 ± 0.67 | 10.45 | 2.02 ± 0.13 | CCOc1ccc(C2=NN(c3ccc(S(N)(=O)=O)cc3)C(c3ccc4c(c3)OCO4)C2)cc1 (centres unmarked) [Compound 4c, 4-(5-(Benzo[d][1,3]dioxol-5-yl)-3-(4-ethoxyphenyl)-4,5-dihydro-1H-pyrazol-1-yl)benzenesulfonamide] | 159 ± 11.4 |
| 3.12 ± 0.08 | 41.18 ± 0.17 | 187 to 189 | 4.14 ± 0.21 | 3.28 ± 0.17 | 2.17 ± 0.05 | 3.95 ± 0.18 | 47.33 |  | NS(=O)(=O)c1ccc(N2N=C(c3ccc(I)cc3)CC2c2ccc3c(c2)OCCO3)cc1 (centres unmarked) [Compound 4r, 4-(5-(2,3-Dihydrobenzo[b][1,4]dioxin-6-yl)-3-(4-iodophenyl)-4,5-dihydro-1H-pyrazol-1-yl)benzenesulfonamide] | 38 ± 1.19 |
| 4.43 ± 0.33 | 38.41 ± 0.34 | 195 to 196 | 7.12 ± 0.69 | 9.24 ± 0.74 | 3.83 ± 0.27 | 6.44 ± 0.37 | 25.10 | 1.53 ± 0.12 | NS(=O)(=O)c1ccc(N2N=C(c3ccc(F)cc3)CC2c2ccc3c(c2)OCCO3)cc1 (centres unmarked) [Compound 4o, 4-(5-(2,3-Dihydrobenzo[b][1,4]dioxin-6-yl)-3-(4-fluorophenyl)-4,5-dihydro-1H-pyrazol-1-yl)benzenesulfonamide] | 107 ± 9.21 |
| 3.14 ± 0.25 | 26.64 ± 0.26 | 153 to 154 | 5.96 ± 0.39 | 6.92 ± 0.28 | 3.18 ± 0.19 | 5.47 ± 0.29 | 20.98 | 1.27 ± 0.03 | NS(=O)(=O)c1ccc(N2N=C(c3ccc(Br)cc3)CC2c2ccc3c(c2)OCCO3)cc1 (centres unmarked) [Compound 4q, 4-(3-(4-Bromophenyl)-5-(2,3-dihydrobenzo[b][1,4]dioxin-6-yl)-4,5-dihydro-1H-pyrazol-1-yl)benzenesulfonamide] | 80.3 ± 8.01 |
| 3.54 ± 0.19 | > 60 | 212 to 214 | 6.32 ± 0.55 | 7.64 ± 0.57 | 3.38 ± 0.27 | 5.77 ± 0.39 | >44.44 | 1.35 ± 0.08 | NS(=O)(=O)c1ccc(N2N=C(c3ccccc3)CC2c2ccc3c(c2)OCO3)cc1 (centres unmarked) [Compound 4a, 4-(5-(Benzo[d][1,3]dioxol-5-yl)-3-phenyl-4,5-dihydro-1H-pyrazol-1-yl)benzenesulfonamide] | 88.6 ± 3.96 |
| 7.83 ± 0.58 | > 60 | 191 to 192 | 10.2 ± 0.72 | 15.4 ± 0.84 | 5.51 ± 0.37 | 8.96 ± 0.74 | >27.40 | 2.19 ± 0.21 | NS(=O)(=O)c1ccc(N2N=C(c3ccccc3F)CC2c2ccc3c(c2)OCCO3)cc1 (centres unmarked) [Compound 4y, 4-(5-(2,3-Dihydrobenzo[b][1,4]dioxin-6-yl)-3-(2-fluorophenyl)-4,5-dihydro-1H-pyrazol-1-yl)benzenesulfonamide] | 178 ± 12.7 |
| 6.71 ± 0.57 | > 60 | 180 to 182 | 9.16 ± 0.37 | 13.3 ± 0.89 | 4.96 ± 0.38 | 8.14 ± 0.69 | >30.30 | 1.98 ± 0.15 | Cc1ccc(C2=NN(c3ccc(S(N)(=O)=O)cc3)C(c3ccc4c(c3)OCO4)C2)c(C)c1 (centres unmarked) [Compound 4i, 4-(5-(Benzo[d][1,3]dioxol-5-yl)-3-(2,4-dimethylphenyl)-4,5-dihydro-1H-pyrazol-1-yl)benzenesulfonamide] | 155 ± 12.7 |
| 4.54 ± 0.18 | 29.77 ± 0.23 | 187 to 188 | 7.22 ± 0.65 | 9.44 ± 0.74 | 3.88 ± 0.36 | 6.52 ± 0.46 | 19.20 | 1.55 ± 0.06 | Cc1cccc(C2=NN(c3ccc(S(N)(=O)=O)cc3)C(c3ccc4c(c3)OCO4)C2)c1 (centres unmarked) [Compound 4e, 4-(5-(Benzo[d][1,3]dioxol-5-yl)-3-(m-tolyl)-4,5-dihydro-1H-pyrazol-1-yl)benzenesulfonamide] | 110 ± 7.71 |
